Data as given in article PMC5860131, “Identification of natural products as novel ligands for the human 5-HT2C receptor” (Biophysics Reports, 2018).
pEC50: −log10 of the molar value.

Tests used:
5-HT2C receptor [1] = target: T1, 5-HT2C receptor (Homo sapiens, UniProt P28335, DEL255-298/G251D/H250E/H252N/INS299[…]/L248D/M247A/M300L/T253W); format: binding; conditions: CPM assay, comparing to apo-protein
T1 construct: the N- and C-terminals were truncated by 39 and 65 residues, respectively; FLAG (N); PreScission protease site + 10× His (C); made in house; host or cells: Spodoptera frugiperda (Sf9), baculovirus

5-HT2A receptor = target: T2, 5-HT2A receptor (Homo sapiens, UniProt P28223); assay: Ca2+ mobilization assay (Fluo-4, FLIPR), HEK 293T cells stably transfected with 5-HT2A; format: cell-based; conditions: agonist mode, up to 30,000 nmol/L
T2 construct: expressed in transfected cells; host or cells: HEK 293T, stably transfected
From the text: (§1) The 5-HT2C receptor mainly couples to Gαq proteins. The activated 5-HT2C receptor transmits the signals from the extracellular to the intercellular side using DAG/IP3 (diacyl glycerol/inositol 1,4,5-trisphosphate) as its second massagers (Hannon and Hoyer [2008]). IP3 stimulates the endoplasmic reticulum to release calcium ions into the cytoplasm, which causes the increase of calcium concentration in cytosol. Therefore, calcium mobilization assay is commonly applied to understand how unknown small molecule ligands of 5-HT2C receptor modulate cellular signal transductions. In this case, Fluo-4 Direct dye was used as a fluorescence indicator to detect calcium flux in G protein-coupled receptor expressed cells. The fold of maximum response over average of basal reading is plotted against compound concentration to determine the potency of the compounds (Fig. 3). […]. […] After the dye loaded, cells were placed in a FLIPR^TETRA fluorescence imaging plate reader (Molecular Devices); drug dilutions, prepared at 3× final concentration in FLIPR buffer and aliquotted into 384-well plates, were also added to the FLIPR^TETRA. The fluidics module and plate reader of the FLIPR^TETRA were programmed to read baseline fluorescence for 10 s (1 read/s), then to add 10 μl of drug/well and to read for 6 min (1 read/s). […]

5-HT2B receptor = target: T3, 5-HT2B receptor (Homo sapiens, UniProt P41595); assay: Ca2+ mobilization assay (Fluo-4, FLIPR), HEK 293T cells stably transfected with 5-HT2B; format: cell-based; conditions: agonist mode, up to 30,000 nmol/L
T3 construct: expressed in transfected cells; host or cells: HEK 293T, stably transfected
From the text: as §1

5-HT2C receptor [2] = target: T4, 5-HT2C receptor (Homo sapiens, UniProt P28335); assay: Ca2+ mobilization assay (Fluo-4, FLIPR), HEK 293T cells stably transfected with 5-HT2C; format: cell-based
T4 construct: expressed in transfected cells; host or cells: HEK 293T, stably transfected
T4 sequence (P28335 33-458): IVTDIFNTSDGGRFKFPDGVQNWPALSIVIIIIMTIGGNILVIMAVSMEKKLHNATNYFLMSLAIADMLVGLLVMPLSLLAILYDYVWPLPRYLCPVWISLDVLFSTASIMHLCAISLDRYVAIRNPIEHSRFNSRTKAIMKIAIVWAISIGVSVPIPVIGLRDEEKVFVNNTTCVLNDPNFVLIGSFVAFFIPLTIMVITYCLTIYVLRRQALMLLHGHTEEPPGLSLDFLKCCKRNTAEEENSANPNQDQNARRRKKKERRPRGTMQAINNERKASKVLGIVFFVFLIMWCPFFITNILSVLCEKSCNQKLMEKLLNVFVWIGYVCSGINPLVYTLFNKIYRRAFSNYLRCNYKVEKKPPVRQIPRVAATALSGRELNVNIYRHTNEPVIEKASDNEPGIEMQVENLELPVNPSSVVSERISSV
From the text: The 5-HT2C receptor mainly couples to Gαq proteins. The activated 5-HT2C receptor transmits the signals from the extracellular to the intercellular side using DAG/IP3 (diacyl glycerol/inositol 1,4,5-trisphosphate) as its second massagers (Hannon and Hoyer [2008]). IP3 stimulates the endoplasmic reticulum to release calcium ions into the cytoplasm, which causes the increase of calcium concentration in cytosol. Therefore, calcium mobilization assay is commonly applied to understand how unknown small molecule ligands of 5-HT2C receptor modulate cellular signal transductions. In this case, Fluo-4 Direct dye was used as a fluorescence indicator to detect calcium flux in G protein-coupled receptor expressed cells. The fold of maximum response over average of basal reading is plotted against compound concentration to determine the potency of the compounds (Fig. 3). […]. HEK 293T cells stably transfected with 5-HT2A/2B/2C receptor were seeded in 384-well plates at a density of 15,000 cells/well in DMEM containing 1% dialyzed FBS 8 h before the calcium flux assay. After removing medium, cells were then incubated (20 μl/well) for 1 h at 37 °C with Fluo-4 Direct dye (Invitrogen) reconstituted in FLIPR buffer (1× HBSS, 2.5 mmol/L probenecid, and 20 mmol/L HEPES, pH 7.4). After the dye loaded, cells were placed in a FLIPR^TETRA fluorescence imaging plate reader (Molecular Devices); drug dilutions, prepared at 3× final concentration in FLIPR buffer and aliquotted into 384-well plates, were also added to the FLIPR^TETRA. The fluidics module and plate reader of the FLIPR^TETRA were programmed to read baseline fluorescence for 10 s (1 read/s), then to add 10 μl of drug/well and to read for 6 min (1 read/s). Fluorescence in each well was normalized to the average of the first 10 reads (i.e., baseline fluorescence). Then, the maximum-fold increase, which occurred within 60 s after drug addition, over baseline fluorescence elicited by vehicle or drug was determined. […]

[3] = system: cortical pyramidal neurons; assay: Whole-cell patch clamp recording of spontaneous synaptic current (SPSC) in brain slices; format: cell-based; conditions: 10 μmol/L; mouse brain slices
Description: 5-HT receptors play important roles in central and peripheral nervous systems. Malfunctions of these receptors have been linked to many neural disorders such as depression and psychosis. The effect of (–)-crebanine on changes in 5-HT induced synaptic transmission was evaluated by electrophysiological recording of mouse brain slices (Jang et al. [2012]). The spontaneous synaptic current (SPSC) of cortical pyramidal neurons was recorded in whole cell mode.
Cortical slices from ICR mouse of both genders (15–21 days) were prepared for electrophysiological recording. In brief, the animals were decapitated and brains were placed in cold sucrose artificial cerebrospinal fluid (sucrose-ASCF, in mmol/L: sucrose 213, KCl 2.5, NaH2PO4 1.25, NaHCO3 26, D-glucose 10, MgSO4 2, CaCl2 2, pH 7.4, 0–4 °C, saturated with 95% O2 and 5% CO2). The brains were cut into 280 or 300 μm slices with a vibratome (Leica VT1200S, Germany); slices were then incubated with ACSF (in mmol/L: NaCl 126, KCl 2.5, NaH2PO4 1.25, NaHCO3 26, D-glucose 25, MgSO4 2, CaCl2 2, pH 7.4, saturated with 95% O2 and 5% CO2) at room temperature for 1 h.
A whole-cell patch clamp technique was used. […] Activity of cortical pyramidal neurons was recorded using an amplifier (HEKA EPC 10 USB, Germany) in the voltage clamp mode. […]

5-HT2C receptor [4] = target: T1, 5-HT2C receptor; format: binding

T1 sequence (P28335 with tags, fused parts or gaps with the stated changes limits assumed): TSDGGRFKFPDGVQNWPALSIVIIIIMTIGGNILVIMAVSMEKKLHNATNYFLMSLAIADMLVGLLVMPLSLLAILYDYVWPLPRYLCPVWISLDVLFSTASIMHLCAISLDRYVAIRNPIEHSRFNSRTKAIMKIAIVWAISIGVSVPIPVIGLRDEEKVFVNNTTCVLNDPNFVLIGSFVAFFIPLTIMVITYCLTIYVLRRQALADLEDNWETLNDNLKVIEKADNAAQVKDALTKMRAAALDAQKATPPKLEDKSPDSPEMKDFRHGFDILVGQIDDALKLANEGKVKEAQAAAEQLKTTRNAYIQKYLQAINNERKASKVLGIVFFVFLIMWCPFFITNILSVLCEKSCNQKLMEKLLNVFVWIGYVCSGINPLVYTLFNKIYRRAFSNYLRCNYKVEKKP
T3 sequence (P41595 whole entry): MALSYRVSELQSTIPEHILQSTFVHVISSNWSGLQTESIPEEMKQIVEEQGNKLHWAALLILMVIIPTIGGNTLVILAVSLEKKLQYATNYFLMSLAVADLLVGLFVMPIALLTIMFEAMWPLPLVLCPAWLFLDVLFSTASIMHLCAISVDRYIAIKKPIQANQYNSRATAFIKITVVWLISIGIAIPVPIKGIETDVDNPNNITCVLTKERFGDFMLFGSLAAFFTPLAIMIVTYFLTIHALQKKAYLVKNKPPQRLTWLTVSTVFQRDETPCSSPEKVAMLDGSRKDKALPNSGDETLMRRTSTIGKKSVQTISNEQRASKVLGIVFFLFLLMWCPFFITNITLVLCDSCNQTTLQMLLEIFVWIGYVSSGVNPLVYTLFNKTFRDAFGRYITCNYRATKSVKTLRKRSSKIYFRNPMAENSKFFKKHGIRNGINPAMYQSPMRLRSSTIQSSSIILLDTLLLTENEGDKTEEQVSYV
T2 sequence (P28223 whole entry): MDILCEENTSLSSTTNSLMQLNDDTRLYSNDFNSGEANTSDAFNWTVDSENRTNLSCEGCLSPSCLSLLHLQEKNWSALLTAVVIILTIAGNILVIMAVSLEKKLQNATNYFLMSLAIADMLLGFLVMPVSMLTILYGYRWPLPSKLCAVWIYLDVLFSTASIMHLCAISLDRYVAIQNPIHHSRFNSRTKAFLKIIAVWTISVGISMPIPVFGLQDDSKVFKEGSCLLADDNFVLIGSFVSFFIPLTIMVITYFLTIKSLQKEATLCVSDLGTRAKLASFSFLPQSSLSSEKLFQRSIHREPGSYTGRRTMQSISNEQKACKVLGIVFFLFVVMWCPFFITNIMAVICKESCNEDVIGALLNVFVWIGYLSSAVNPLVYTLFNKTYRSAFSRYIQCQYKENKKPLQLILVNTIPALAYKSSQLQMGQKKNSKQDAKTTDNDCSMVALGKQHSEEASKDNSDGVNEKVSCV

For `COc1cc2c(cc1OC)-c1c3c(cc4c1[C@@H](C2)N(C)CC4)OCO3` [Compound 2, (–)-dicentrine], the “thermal shift value (∆Tm)” value (5-HT2C receptor [1]) was under 1.00 °C.
`COc1ccc2c(c1O)-c1c(O)c(OC)cc3c1[C@H](C2)[N+](C)(C)CC3` [Compound 3, (+)-magnoflorine] was tested, and the “thermal shift value (∆Tm)” value (5-HT2C receptor [1]) was under 1.00 °C.
With `COc1cc2cc3c4c(cc(OC)c(OC)c4c2cc1OC)CCN3C` [Compound 4, didehydroglaucine] the “thermal shift value (∆Tm)” value (5-HT2C receptor [1]) was under 1.00 °C.
`COc1ccc2c(c1O)-c1c(OC)c(OC)cc3c1[C@H](C2)N(C)CC3` [Compound 5, (+)-isocorydine] was tested, and the receptor activation (5-HT2A receptor) was “inactive”, the receptor activation (5-HT2B receptor) was “inactive” and the pEC50 (5-HT2C receptor [2]) was 5.68. It also gave an Emax (5-HT2C receptor [2]; HEK-293T) of 16.6%.
In the case of `NCCc1c[nH]c2ccc(O)cc12` [Compound 5-HT, 5-hydroxytryptamine, reference compound], the “effect on SPSC” value [3] was “amplified”.
For `Cc1nc2sccn2c(=O)c1CCN1CCC(=C(c2ccc(F)cc2)c2ccc(F)cc2)CC1` [Ritanserin, ritanserin, reference compound], the S/C (5-HT2C receptor [4]) was 8.39 ± 1.80 and the “affinity (in words)” value (5-HT2C receptor [4]) was “high nmol/L range”.
